In US20090197933A1, “IMIDAZOLINYLMETHYL ARYL SULFONAMIDE” (priority 2008, published 2009):

Columns and labels:
alpha-1A adrenoceptors = target: T1, alpha-1A adrenoceptors (Homo sapiens, UniProt P35348); assay: alpha-1A adrenoceptor partial agonist activity (intrinsic activity and pEC50); assay type: cell-based
T1 sequence (P35348 1-466): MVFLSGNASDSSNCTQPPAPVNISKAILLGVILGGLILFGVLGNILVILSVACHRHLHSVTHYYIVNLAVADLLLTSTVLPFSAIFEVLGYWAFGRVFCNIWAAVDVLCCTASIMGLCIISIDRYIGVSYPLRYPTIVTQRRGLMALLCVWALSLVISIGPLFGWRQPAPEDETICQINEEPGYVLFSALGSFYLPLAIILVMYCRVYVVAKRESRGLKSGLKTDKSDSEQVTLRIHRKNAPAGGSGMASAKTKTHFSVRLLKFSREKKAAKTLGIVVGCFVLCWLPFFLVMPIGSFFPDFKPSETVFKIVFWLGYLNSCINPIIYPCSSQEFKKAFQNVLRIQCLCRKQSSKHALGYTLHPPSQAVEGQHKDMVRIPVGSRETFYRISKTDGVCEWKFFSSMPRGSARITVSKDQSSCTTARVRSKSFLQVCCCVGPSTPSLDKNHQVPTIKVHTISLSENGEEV

[1] = tested on: Female, Dutch Belted rabbits; assay: Anesthetized rabbit model: intraurethral pressure (IUP) and mean arterial blood pressure (MAP); assay type: in vivo; conditions: i.v.; for durability of IUP response over time: slope of IUP response 2-7 minutes post the first peak, top 3 doses
Protocol: In general, IUP is the intraurethral pressure and is measured as the 2 minute mean from the first peak of the urethral response (FIG. 1). MAP is the mean arterial blood pressure and is measured as the average blood pressure during the 2 minute section where IUP is measured. The durability is the slope of the IUP response in mmHg/min and is calculated immediately after the 2 minute IUP response for 5 minutes (2-7 minutes post the first peak) for the top 3 doses.
Surgery: Female, Dutch Belted rabbits (1.20-2.0 kg, Myrtle's Rabbitry, Tenn.) were anesthetized with isoflurane (3.0% at 2 to 4 L/min) and urethane (1.5 grams/kg, s.c.). In preparation for surgery, the rabbits were shaved, scrubbed (i.e., perineal area, ventral neck, and ventral, caudal surface of the abdomen) and were administered Ringers Lactate Solution (s.c.) to maintain fluids. The femoral vein and carotid artery were isolated and cannulated with PE-50 and PE-90 tubing (Becton-Dickinson), respectively, for the administration of drugs (vein) and the measurement of blood pressure (artery). An abdominal incision was made, exposing the ureters and the bladder. The ureters were isolated and cannulated proximal to the urinary bladder with PE-50 tubing, to drain urine from the kidneys. […]
Experiment: The arterial cannula was connected to a P23XL pressure transducer (Grass Technologies, West Warwick, R.I.) and the arterial pressure transducer and Unisensor urethral transducer catheter were connected to an Gould 13-6615-50 amplifier (Data Sciences International, St. Paul, Minn.) and Gould TA6000 recorder (Data Sciences International, St. Paul, Minn.) in parallel. All data was analyzed using Power Lab Chart version 5.0.2 (ADInstruments, Colorado Springs, Colo.) data acquisition system. […]
Measurements: The change in IUP and MAP from baseline were measured as well as the slope of the IUP response. MAP was first calculated according to the following formula, where Pd is diastolic pressure and Ps is systolic pressure: MAP=Pd+⅓ (Ps−Pd). Pre-dose baseline values for IUP and MAP were assessed during a 2 min period just prior to vehicle or test compound administration. Post-dose values for IUP or MAP were determined during a 2 min period at the first peak in the IUP tracing following vehicle or test compound administration. The change in IUP and MAP induced by vehicle or test compound were then calculated by subtracting the pre-dose value from the post-dose value. The rate of decline (mmHg/min) in the IUP response was determined by taking the average slope during the 5 min. period immediately following the 2 min. efficacy measurement for the top three doses. […]

## Cc1c(CC2=NCCN2)ccc(NS(C)(=O)=O)c1F [Formula I, N-[4-(4,5-Dihydro-1H-imidazol-2-ylmethyl)-2-fluoro-3-methyl-phenyl]-methanesulfonamide]
alpha-1A adrenoceptors; ideally between 0.35 to 0.60
  intrinsic activity, or efficacy, as a partial agonist: 0.46
alpha-1A adrenoceptors; read-out: affinity, or pEC50 value (converted)
  EC50: 631 nM
[1]
  maximum increase in MAP (arterial blood pressure): 10.62 mmHg
  durability of IUP response over time: improved durability of IUP response over time
[1]; at the 10 mmHg change in IUP level
  selectivity for enhancement of intraurethral pressure (IUP) over blood pressure (MAP) (Urethral Selectivity MAP/IUP = ED10 of MAP/ED10 of IUP): 2.13 fold
[1]; listed as formula I
  durability of IUP response over time: increased durability of IUP response over time
